Measurements published in patent US6682931B2, “Recovering cryopreserved conifer embryogenic cultures” (MeadWestvaco Corporation, priority 1999, dated 2004).

Legend:
Assay type in all cases: cell-based
[1] = tested on: loblolly pine (Pinus taeda) embryogenic cell lines; assay: Percent increase in fresh weight of pine embryogenic cell lines retrieved from cryopreservation on post-cryopreservation recovery medium (Examples 1 and 2); details: DCR1 + 30 mg/l ABA, 26 days after retrieval
[2] = tested on: loblolly pine embryogenic cell lines; assay: Yield of stage 3 somatic embryos from embryogenic cultures retrieved from cryopreservation (Example 4); details: for Total Number of Somatic Embryos Harvested: recovered on 30 mg/l ABA, nine weeks on embryo development medium
Source text: The purpose of this experiment was to determine whether addition of ABA to the post-cryopreservation culture medium improved the yield of somatic embryos harvested from the cultures after they were retrieved from cryogenic storage. The six loblolly pine cell lines retrieved from cryogenic storage in Example 1 were used in this experiment. Embryogenic tissue from each cell line was dispersed onto nylon membranes using liquid DCR1 medium (formulation in Table 1 without the GELRITE). Four ml of embryogenic culture retrieved from cryogenic storage of each cell line and treatment (both the no ABA and the 30 mg/l ABA post-cryopreservation recovery medium) was added to 5 ml of liquid DCR1 medium and dispersed by agitation. One ml aliquots of the suspension were dispensed using a sterile 5-ml pipette with a cotton plug. Each 1 ml aliquot was transferred to the surface of a sterile 4 cm nylon membrane positioned on top of two sterile Whatman No. 2 filter papers in the bottom of an empty 15×100 mm sterile plastic culture plate. The nylon membranes with the dispersed embryogenic cultures were placed on either DCR1 medium containing 30 mg/l ABA or the same medium without any ABA depending on their respective post-cryopreservation recovery medium treatments from which they were derived. […] The tissue on the nylon membranes was cultured for 5-6 days at 23° C. in the dark to induce proliferation from the newly dispersed cultures. The nylon membranes with tissue were then transferred to an embryo development medium (see Table IV below) as described in U.S. Pat. No. 5,731,204 (Rutter et al.), to test the yield of stage 3 cotyledonary somatic embryos. The plates with membranes containing the embryogenic cultures were incubated in the dark at 23° C. The nylon membranes with the embryogenic cultures were transferred to new plates containing the same fresh embryo development medium every three weeks. After a total of nine weeks, the number of stage 3 embryos was counted on each membrane, and the data were analyzed using SAS GLM ANOVA statistical software.

[3] = tested on: loblolly pine (Pinus taeda) embryogenic cell lines; assay: Percent increase in fresh weight of pine embryogenic cell lines retrieved from cryopreservation on post-cryopreservation recovery medium (Examples 1 and 2); details: for Additional Culture Growth on DCR1 + ABA: 30 mg/l ABA vs medium without ABA
Protocol: Each embryogenic culture was cryopreserved as follows. Embryogenic tissue (7 to 14 days since the last subculture) was dispersed in liquid DCR1 medium (the DCR1 medium of Table I without the GELRITE) which contained 0.4 molar sorbitol as described in U.S. Pat. No. 5,506,136. The amount of embryogenic tissue used was sufficient to result in a 40% suspension (i.e., 4 ml volume of embryogenic tissue added to 6 ml of liquid medium). An Erlenmeyer flask containing the suspension was incubated for 24 hours in the dark on a gyrotory shaker (100 rpm), and then placed on ice. Five aliquots of the cryoprotective chemical dimethyl sulfoxide (DMSO) were aseptically added to the suspension to bring the final concentration of DMSO to 10% (vol/vol). One milliliter aliquots of the suspension containing DMSO were then transferred to 2 ml NALGENE® cryogenic vials (manufactured by the Nalge Co.), placed in programmable freezer (Model 9000 manufactured by Gordinier Electronics) and cooled to −35° C. at a rate of 0.33° C. per minute. The cultures were cryopreserved by immersing the cryogenic vials in liquid nitrogen inside a cryogenic storage tank (Model #CY50945 manufactured by Thermolyne, Inc.). The cultures remained in cryogenic storage for at least 36 months prior to retrieval.
The cryogenic vials were retrieved from the cryogenic storage tank and placed in 44° C. water until the ice crystals in the frozen embryogenic cultures were melted. The thawed culture from each cryogenic vial was aseptically pipetted and dispensed onto a sterile 7 cm×7 cm NITEX nylon 35 μm pore size membrane (commercially available from Sefar, Inc.) which had been placed on top of two sterile filter papers (Whatman no. 2 commercially available from Whatman International Ltd.) to absorb excess liquid from the culture and membrane. Each nylon membrane containing embryogenic culture was then transferred to a DCR1 medium which served as a temporary recovery medium for 24 hours in order to lower the concentration of cryoprotective chemicals and osmotic agents contained in the culture.
Each nylon membrane containing embryogenic tissue was then transferred to one of two post-cryopreservation medium treatments. One treatment was DCR1 medium without ABA. The other treatment was DCR1 medium with 30 mg/l of ABA. The initial fresh weight (FW0) of the embryogenic tissue was measured aseptically at this time. There were 3 plates (each derived from an individual cryogenic vial) per treatment and cell line. The embryogenic cultures on membranes were transferred after 24 hours, and thereafter, every 14 days to a new plate of the same medium. The culture environment during post-cryopreservation recovery and growth was 23° C. in the dark. At 25 days after retrieval from cryogenic storage the final fresh weight (FWF) of the proliferating embryogenic culture was measured. The growth of the embryogenic tissue during the post-cryopreservation treatments was calculated as a percent increase in fresh weight relative to the initial fresh weight as follows: ((FWF−FW0)/FW0)*100.
Each cell line was cryopreserved as follows. The liquid suspension cultures (7 days since the last subculture) were aseptically centrifuged at 1500 rpm for 10 minutes (400 g-force) to separate the embryogenic tissue from the liquid medium. The supernatant medium was removed from the embryogenic tissue. To the remaining volume of centrifuged embryogenic tissue, was added an equal volume of liquid DCR1 medium containing 0.8 molar sorbitol, so that the final sorbitol concentration was 0.4 molar. An Erlenmeyer flasks containing each suspension was incubated for 24 hours in the dark on a gyrotory shaker (100 rpm), and then placed on ice. The cryoprotective chemical DMSO was added to the chilled cultures at one time to bring the final concentration of DMSO to 10% (vol/vol). […]

[4] = all six cell lines A1-A6, 30 mg/l ABA

CC1=CC(=O)CC(C)(C)[C@@]1(O)/C=C/C(C)=C\C(=O)O [ABA, abscisic acid]
Average Percent Increase in Fresh Weight ([1]; cell line B1): 195%
Average Percent Increase in Fresh Weight ([1]; cell line B2): 29%
Average Percent Increase in Fresh Weight ([1]; cell line B4): 34%
% Increase of total number of somatic embryos harvested over control without ABA [2, 4]: 332%
Total Number of Somatic Embryos Harvested, total of the 6 cell lines [2, 4]: 588
Total Number of Somatic Embryos Harvested ([2]; cell line A1): 404
Total Number of Somatic Embryos Harvested ([2]; cell line A2): 82
Total Number of Somatic Embryos Harvested ([2]; cell line A3): 0
Total Number of Somatic Embryos Harvested ([2]; cell line A4): 43
Total Number of Somatic Embryos Harvested ([2]; cell line A5): 15
Total Number of Somatic Embryos Harvested ([2]; cell line A6): 44
Additional Culture Growth on DCR1 + ABA, overall ([3]; Average and Increase lines, all ten cell lines, 30 mg/l ABA): yes
Increase of overall average percent increase in fresh weight on medium with ABA compared to medium without ABA ([3]; all ten cell lines, 30 mg/l ABA): 70%
Average Percent Increase in Fresh Weight, average of all ten cell lines ([3]; average of cell lines A1-A6 and B1-B4, DCR1 + 30 mg/l ABA): 2469%
Additional Culture Growth on DCR1 + ABA ([3]; cell line A1): yes
Average Percent Increase in Fresh Weight ([3]; cell line A1, DCR1 + 30 mg/l ABA, 25 days after retrieval): 270%
Additional Culture Growth on DCR1 + ABA ([3]; cell line A2): yes
Average Percent Increase in Fresh Weight ([3]; cell line A2, DCR1 + 30 mg/l ABA, 25 days after retrieval): 7484%
Additional Culture Growth on DCR1 + ABA ([3]; cell line A3): yes
Average Percent Increase in Fresh Weight ([3]; cell line A3, DCR1 + 30 mg/l ABA, 25 days after retrieval): 4065%
Total fresh weight of embryogenic tissue from three cryogenic vials ([3]; cell line A3, medium with ABA (30 mg/l)): 5.17 grams
Additional Culture Growth on DCR1 + ABA ([3]; cell line A4): yes
Average Percent Increase in Fresh Weight ([3]; cell line A4, DCR1 + 30 mg/l ABA, 25 days after retrieval): 1652%
Additional Culture Growth on DCR1 + ABA ([3]; cell line A5): yes
Average Percent Increase in Fresh Weight ([3]; cell line A5, DCR1 + 30 mg/l ABA, 25 days after retrieval): 6479%
Additional Culture Growth on DCR1 + ABA ([3]; cell line A6): yes
Average Percent Increase in Fresh Weight ([3]; cell line A6, DCR1 + 30 mg/l ABA, 25 days after retrieval): 1221%
Additional Culture Growth on DCR1 + ABA ([3]; cell line B1): no
Additional Culture Growth on DCR1 + ABA ([3]; cell line B2): yes
Additional Culture Growth on DCR1 + ABA ([3]; cell line B3): yes
Average Percent Increase in Fresh Weight ([3]; cell line B3, DCR1 + 30 mg/l ABA, 26 days after retrieval): 3259%
Additional Culture Growth on DCR1 + ABA ([3]; cell line B4): yes
